Consider 25 compounds from PubChem BioAssay AID330 (DTP/NCI, 2004).

Where “and” joins values, the source holds several entries; their conditions need not be identical. Equal values may be shown once. Inconclusive results and toxic doses are left out.

The assay relates to P388 leukemia ip, CD2F1 mice, survival T/C. Briefly: NCI In Vivo Anticancer Drug Screen. Data for tumor model P388 Leukemia (intraperitoneal) in CD2F1 (CDF1) mice. The note with it: endpoint: median survival time, higher = longer survival. In a few lines: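 Mice carrying the transplanted tumor received test compound or vehicle. Survival was recorded in each group, and the value is the treated-group measurement divided by that of the vehicle-treated control group.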

Setting [1] is: dose: 25.0 mg/kg/injection, schedule: Q04DX002 (ip), vehicle: saline with Tween-80.
Setting [2] is: dose: 50.0 mg/kg/injection, schedule: Q04DX002 (ip), vehicle: saline with Tween-80.
[3] abbreviates: dose: 100.0 mg/kg/injection, schedule: Q04DX002 (ip), vehicle: saline with Tween-80.
Setting [4] is: dose: 60.0 mg/kg/injection, schedule: Q01DX005 (ip), vehicle: Klucel (hydroxypropylcellulose) (HPC).
Setting [5] is: dose: 120.0 mg/kg/injection, schedule: Q01DX005 (ip), vehicle: Klucel (hydroxypropylcellulose) (HPC).
Where [6] appears, read: dose: 60.0 mg/kg/injection, schedule: Q01DX005 (ip), vehicle: saline with Tween-80.
Where [7] appears, read: dose: 120.0 mg/kg/injection, schedule: Q01DX005 (ip), vehicle: saline with Tween-80.
Setting [8] is: dose: 240.0 mg/kg/injection, schedule: Q01DX005 (ip), vehicle: saline with Tween-80.
[9] abbreviates: dose: 100.0 mg/kg/injection, schedule: Q04DX003 (ip), vehicle: saline with Tween-80.
The mark [10] stands for this setting: dose: 200.0 mg/kg/injection, schedule: Q04DX003 (ip), vehicle: saline with Tween-80.
The mark [11] stands for this setting: dose: 400.0 mg/kg/injection, schedule: Q04DX003 (ip), vehicle: saline with Tween-80.
The mark [12] stands for this setting: dose: 25.0 mg/kg/injection, schedule: Q01DX005 (ip), vehicle: saline with Tween-80.
The mark [13] stands for this setting: dose: 50.0 mg/kg/injection, schedule: Q01DX005 (ip), vehicle: saline with Tween-80.
[14] abbreviates: dose: 100.0 mg/kg/injection, schedule: Q01DX005 (ip), vehicle: saline with Tween-80.
The mark [15] stands for this setting: dose: 200.0 mg/kg/injection, schedule: Q01DX005 (ip), vehicle: saline with Tween-80.

In the case of `CN=C(N)N/N=C(\c1ccccc1)c1cc(Cl)c(O)c(Cl)c1`, the T/C under setting [1] was 101 % of control; the T/C under setting [2] is 100 % of control; the T/C under setting [3] was 100 % of control; the T/C (dose: 200.0 mg/kg/injection, schedule: Q04DX002 (ip), vehicle: saline with Tween-80) was 104 % of control; the T/C (dose: 400.0 mg/kg/injection, schedule: Q04DX002 (ip), vehicle: saline with Tween-80) was 103 % of control.
Turning to `Cc1cc(NCCCCCCCCNc2cc(C)nc3cc(N(C)C)ccc23)c2ccc(N(C)C)cc2n1`, the T/C (dose: 12.5 mg/kg/injection, schedule: Q04DX002 (ip), vehicle: distilled water + Tween-80 + alcohol) is 108 % of control; the T/C (dose: 25.0 mg/kg/injection, schedule: Q04DX002 (ip), vehicle: distilled water + Tween-80 + alcohol) was 118 % of control; the T/C (dose: 100.0 mg/kg/injection, schedule: Q04DX002 (ip), vehicle: distilled water + Tween-80 + alcohol) is 172 % of control.
Regarding `O=C(O)CCc1c(-c2ccccc2)c(-c2ccccc2)c2n1CCC2`, the T/C is 98 % of control (dose: 100.0 mg/kg/injection, schedule: Q01DX001 (ip), vehicle: saline with Tween-80); 100 % of control (dose: 200.0 mg/kg/injection, schedule: Q01DX001 (ip), vehicle: saline with Tween-80); 97 % of control (dose: 400.0 mg/kg/injection, schedule: Q01DX001 (ip), vehicle: saline with Tween-80).
Consider `Cc1cc(-n2c(C)nc3ccccc3c2=O)on1`, for which the T/C reads like this: under setting [4], 101 % of control; under setting [5], 93 % of control; (dose: 240.0 mg/kg/injection, schedule: Q01DX005 (ip), vehicle: Klucel (hydroxypropylcellulose) (HPC)) 104 % of control.
Consider `C=CCCCN1C(=O)CCCC1=O`, for which the T/C is, setting by setting: under setting [6], 100 % of control; under setting [7], 101 % of control; under setting [8], 101 % of control.
In the case of `COc1cc(CC2COCC2Cc2ccc3c(c2)OCO3)cc(OC)c1OC` (stereo not given), the T/C is 101 % of control and 103 % of control (dose: 1.25 mg/kg/injection, schedule: Q04DX002 (ip), vehicle: acetone); 101 % of control and 96 % of control and 104 % of control (dose: 2.5 mg/kg/injection, schedule: Q04DX002 (ip), vehicle: acetone); 93 % of control and 96 % of control and 103 % of control (dose: 5.0 mg/kg/injection, schedule: Q04DX002 (ip), vehicle: acetone).
In the case of `CCC1(C(=O)c2ccccc2)C(C(=O)OC)=NC(=N)N=C1C(=O)OC` (stereo not given), the T/C under setting [6] was 100 % of control and the T/C under setting [7] was 95 % of control.
Turning to `CCOC(=O)c1ccc(NCC#N)cc1`, the T/C by setting is: under setting [9], 100 % of control; under setting [10], 100 % of control; under setting [11], 100 % of control.
On to `CC1=NN(c2cc(S(=O)(=O)O)ccc2Cl)C(=O)C1`, for which the T/C (dose: 50.0 mg/kg/injection, schedule: Q01DX009 (ip), vehicle: saline) is 101 % of control; the T/C (dose: 100.0 mg/kg/injection, schedule: Q01DX009 (ip), vehicle: saline) is 105 % of control; the T/C (dose: 200.0 mg/kg/injection, schedule: Q01DX009 (ip), vehicle: saline) was 97 % of control.
Turning to `COc1ccccc1N1C(=O)CC(Sc2ccccc2N)C1=O` (stereo not given), the T/C is, setting by setting: under setting [9], 104 % of control; under setting [10], 90 % of control; under setting [11], 90 % of control.
Turning to `COc1ccc2nc3cc(Cl)ccc3c(Nc3ccccc3NS(C)(=O)=O)c2n1`, the T/C was 103 % of control (dose: 12.5 mg/kg/injection, schedule: Q01DX009 (ip), vehicle: other); 105 % of control (dose: 25.0 mg/kg/injection, schedule: Q01DX009 (ip), vehicle: other); 105 % of control (dose: 50.0 mg/kg/injection, schedule: Q01DX009 (ip), vehicle: other); 111 % of control and 112 % of control (dose: 100.0 mg/kg/injection, schedule: Q01DX009 (ip), vehicle: other); 106 % of control (dose: 200.0 mg/kg/injection, schedule: Q01DX009 (ip), vehicle: other).
Consider `O=C(O)Cc1nn[nH]n1`, for which the T/C is, setting by setting: (dose: 100.0 mg/kg/injection, schedule: Q04DX003 (ip), vehicle: Klucel (hydroxypropylcellulose) (HPC)) 107 % of control; (dose: 200.0 mg/kg/injection, schedule: Q04DX003 (ip), vehicle: Klucel (hydroxypropylcellulose) (HPC)) 108 % of control.
In the case of `COC(=O)c1nc(N)nc(C(=O)OC)c1C(=O)c1ccc(OC)cc1`, the T/C is 101 % of control under setting [4] and 101 % of control under setting [5].
For `CC(C)N(c1nccc(F)n1)C(C)C`, the T/C under setting [12] was 103 % of control, the T/C under setting [13] was 101 % of control, the T/C under setting [14] was 103 % of control and the T/C under setting [15] is 104 % of control.
With `CC(c1ccccc1)N1COc2ccc3ccccc3c2C1` (stereo not given), the T/C is 95 % of control under setting [9], 95 % of control under setting [10] and 95 % of control under setting [11].
Turning to `[BH]n1cccn1.[CH3][Sn]([CH3])[N]=C=S`, the T/C is 117 % of control (dose: 100.0 mg/kg/injection, schedule: Q04DX003 (ip), vehicle: saline) and 117 % of control (dose: 200.0 mg/kg/injection, schedule: Q04DX003 (ip), vehicle: saline).
For `NC(=O)CC1(c2ccccc2)CCCCC1`, the T/C reads like this: (dose: 50.0 mg/kg/injection, schedule: Q01DX009 (ip), vehicle: saline with Tween-80) 111 % of control; (dose: 100.0 mg/kg/injection, schedule: Q01DX009 (ip), vehicle: saline with Tween-80) 102 % of control; (dose: 200.0 mg/kg/injection, schedule: Q01DX009 (ip), vehicle: saline with Tween-80) 104 % of control.
`C/C=C/C(=O)Oc1ccc[nH]c1=O`: the T/C reads like this: (dose: 25.0 mg/kg/injection, schedule: Q01DX005 (ip), vehicle: Klucel (hydroxypropylcellulose) (HPC)) 105 % of control and 91 % of control; (dose: 50.0 mg/kg/injection, schedule: Q01DX005 (ip), vehicle: Klucel (hydroxypropylcellulose) (HPC)) 114 % of control and 116 % of control; (dose: 100.0 mg/kg/injection, schedule: Q01DX005 (ip), vehicle: Klucel (hydroxypropylcellulose) (HPC)) 108 % of control and 113 % of control; (dose: 200.0 mg/kg/injection, schedule: Q01DX005 (ip), vehicle: Klucel (hydroxypropylcellulose) (HPC)) 92 % of control.
In the case of `CSC(=S)/N=c1\ccccn1C`, the T/C under setting [1] is 102 % of control, the T/C under setting [2] is 99 % of control and the T/C under setting [3] is 102 % of control.
With `CC1=CC(=O)C(O)C2(C)C1CC1OC(=O)CC3C(C)C(O)C4(O)OCC13C42` (stereo not given), the T/C is 107 % of control (dose: 5.0 mg/kg/injection, schedule: Q01DX009 (ip), vehicle: Klucel (hydroxypropylcellulose) (HPC)); 117 % of control (dose: 10.0 mg/kg/injection, schedule: Q01DX009 (ip), vehicle: Klucel (hydroxypropylcellulose) (HPC)); 123 % of control (dose: 20.0 mg/kg/injection, schedule: Q01DX009 (ip), vehicle: Klucel (hydroxypropylcellulose) (HPC)).
For `CC(C)(C)OC(=O)NC(CCC(=O)O)C(=O)O` (stereo not given), the T/C under setting [13] is 100 % of control, the T/C under setting [14] was 97 % of control and the T/C under setting [15] was 103 % of control.
In the case of `COc1ccc(Cc2nnc(SC)n2-c2ccc(F)cc2)cc1OC`, the T/C under setting [6] is 102 % of control, the T/C under setting [7] was 95 % of control and the T/C under setting [8] is 102 % of control.
As for `O=C1CN(c2ccccc2)C(=O)CN1/N=C/c1ccco1`, the T/C (dose: 12.5 mg/kg/injection, schedule: Q01DX005 (ip), vehicle: saline with Tween-80) is 100 % of control; the T/C under setting [12] was 95 % of control; the T/C under setting [13] was 100 % of control and 94 % of control; the T/C under setting [14] was 98 % of control; the T/C under setting [15] is 103 % of control.
On to `CC[NH-].CC[NH-].[Cl][Pt+2][Cl]`, for which the T/C runs as follows: (dose: 3.12 mg/kg/injection, schedule: Q01DX009 (ip), vehicle: saline) 150 % of control; (dose: 3.12 mg/kg/injection, schedule: Q01DX009 (ip), vehicle: suspension in saline) 116 % of control; (dose: 6.25 mg/kg/injection, schedule: Q01DX009 (ip), vehicle: saline) 162 % of control; (dose: 12.5 mg/kg/injection, schedule: Q01DX009 (ip), vehicle: saline) 159 % of control; (dose: 12.5 mg/kg/injection, schedule: Q01DX009 (ip), vehicle: suspension in saline) 97 % of control.
With `C/C(=C/c1cc2c(cc1Br)OCO2)[N+](=O)[O-]`, the T/C is, setting by setting: under setting [9], 108 % of control; under setting [10], 118 % of control.
